Patent US10376555B2, “Identification of cyclic peptide agonists of galanin receptor 2 and 3 guided by spexin solution structure” (Hong Kong Baptist University, priority 2017, dated 2019)
Entries after “also recorded” stand apart in the source; their conditions may differ. Like-named read-outs stand apart in the source and are kept apart here. Positions of bridges follow the written chain, without caps; N, C: chain ends. Residues, ends and D or L forms follow the SMILES beside them.

What was measured:
hGalR1 = biological target: T1, hGalR1 (Homo sapiens, UniProt P47211); test: SRE-Luc receptor activation assay, hGalR1; type: cell-based; conditions: for hGalR1 Emax: Relative to hGAL Emax
T1 sequence (P47211 1-349): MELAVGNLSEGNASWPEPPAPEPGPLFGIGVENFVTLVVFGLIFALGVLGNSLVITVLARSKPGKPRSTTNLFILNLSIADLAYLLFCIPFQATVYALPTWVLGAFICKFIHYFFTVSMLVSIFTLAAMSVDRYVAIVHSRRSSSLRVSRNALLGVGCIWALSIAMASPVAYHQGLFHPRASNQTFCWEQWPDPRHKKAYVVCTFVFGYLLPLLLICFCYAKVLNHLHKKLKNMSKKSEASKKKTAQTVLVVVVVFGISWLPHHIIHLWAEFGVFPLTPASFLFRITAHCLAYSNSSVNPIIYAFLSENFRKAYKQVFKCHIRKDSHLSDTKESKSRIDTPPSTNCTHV

hGalR2 = biological target: T2, hGalR2 (Homo sapiens, UniProt O43603); test: SRE-Luc receptor activation assay, hGalR2; type: cell-based; conditions: for hGalR2 Emax: Relative to hSPX Emax
T2 construct: host or cells: HEK293
T2 sequence (O43603 1-387): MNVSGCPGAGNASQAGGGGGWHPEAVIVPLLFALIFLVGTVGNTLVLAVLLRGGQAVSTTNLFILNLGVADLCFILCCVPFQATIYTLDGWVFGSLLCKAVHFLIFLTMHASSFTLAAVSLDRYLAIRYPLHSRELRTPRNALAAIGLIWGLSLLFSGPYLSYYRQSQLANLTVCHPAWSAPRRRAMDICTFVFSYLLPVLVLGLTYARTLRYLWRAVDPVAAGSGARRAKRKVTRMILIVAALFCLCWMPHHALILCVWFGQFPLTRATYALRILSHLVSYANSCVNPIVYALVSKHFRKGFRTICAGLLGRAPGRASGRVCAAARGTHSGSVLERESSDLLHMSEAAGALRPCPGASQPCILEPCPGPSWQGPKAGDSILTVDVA

hGalR3 = biological target: T3, hGalR3 (Homo sapiens, UniProt O60755); test: SRE-Luc receptor activation assay, hGalR3; type: cell-based; conditions: for hGalR3 Emax: Relative to hSPX Emax
T3 construct: host or cells: HEK293
T3 sequence (O60755 1-368): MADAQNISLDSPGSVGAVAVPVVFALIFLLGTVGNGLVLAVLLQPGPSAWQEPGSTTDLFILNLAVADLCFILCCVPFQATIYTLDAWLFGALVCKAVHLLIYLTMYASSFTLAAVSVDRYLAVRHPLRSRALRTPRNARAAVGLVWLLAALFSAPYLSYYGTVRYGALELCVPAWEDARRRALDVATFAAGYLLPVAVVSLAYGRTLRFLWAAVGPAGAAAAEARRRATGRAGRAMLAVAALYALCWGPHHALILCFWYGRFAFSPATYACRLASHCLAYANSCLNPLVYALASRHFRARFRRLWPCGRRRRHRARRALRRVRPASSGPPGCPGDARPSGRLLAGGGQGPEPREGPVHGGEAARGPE

[1] = In vitro serum stability assay (RP-HPLC); type: in vitro ADME, rat
Procedure: The serum stability of CSAs was tested using an in vitro assay followed by reverse-phase high-performance liquid chromatography (RP-HPLC) analysis (FIGS. 33-38).
750 μL RPMI medium 1640 (Thermo Fisher Scientific) was mixed with […] rat serum, and incubated at 37° C. for 15 min before adding peptide. The peptide dissolved in water was added into the reaction buffer to make a final concentration of 100 μg/mL. At each time point (5, 15, 30, 60, 120, 240, and 480 min), 100 μL reaction solution were taken, and mixed with 200 μL 6% trichloroacetic acid (TCA, Sigma-Aldrich). The resulting cloudy solution was cooled at 4° C. for 15 min, and centrifuged for 10 mins at 13,000 rpm. The supernatant was then analyzed by RP-HPLC. The extent of intact peptide was calculated based on the peak area and was normalized using a control sample.

[2] = system: C57BL/6J mice with high-fat-diet (HFD) induced obesity; test: Body weight gain in high-fat-diet induced obesity mice, LH101 (Ac) vs hSPX, 18 day treatment; type: in vivo; conditions: for food intake: recorded every 3 days
Procedure: Female and male C57BL/6J mice weighing 22-25 g were purchased from the Laboratory Animal Services Center, The Chinese University of Hong Kong, Hong Kong. The animals were fed with rodent diet with 60 kcal % fat (Research Diets, New Brunswick, N.J.) ad libitum with free access to water and were housed in rooms maintained at 22±1° C. with a 12 h light/dark cycle (lights on 6:00-18:00). Animals were constantly acclimated to the facility until the body weight reached no less than 30 g. Then all the diet-induced obese mice were divided into 3 groups randomly for the drug treatment. Mice body weight was daily monitored, and the food intake amount was recorded every 3 days. The Animal Ethics Committee of Hong Kong Baptist University approved all experimental protocols in accordance with “Institutional Guidelines and Animal Ordinance” from Department of Health, Hong Kong Special Administrative Region.

[3] = system: male mice (C57BL/6J) with diet-induced obesity (DIO); test: Body weight gain in diet-induced obesity mice, LH101, 14-days-treatment; type: in vivo; conditions: 25 μg/kg i.p., vs PBS controls
Procedure: Male mice (C57BL/6J) weighing about 22-25 g were purchased from the Laboratory Animal Services Center, The Chinese University of Hong Kong, Hong Kong. The animals were fed with a high fat diet (Research Diets, New Brunswick, N.J.) ad libitum with free access to water and were housed in rooms maintained at 22±1° C. with a 12 h light/dark cycle (lights on 6:00-18:00). Animals were constantly acclimated to the facility until the body weight reached 45-50 g. Then all the diet induced obese mice were divided into 2 groups randomly for the drug treatment. The Animal Ethics Committees of Hong Kong Baptist University, approved all experimental protocols, in accordance with “Institutional Guidelines and Animal Ordinance” from Department of Health, Hong Kong Special Administrative Region.

[4] = HEK293 cells transfected with hGalR1, Gqi, SRE-Luc, 6 h treatment, full-dose
[5] = HEK293 cells transfected with hGalR2, Gqi, SRE-Luc, 6 h treatment, full-dose, read-out: hGalR2 EC50
[6] = HEK293 cells transfected with hGalR3, Gqi, SRE-Luc, 6 h treatment, full-dose, read-out: hGalR3 EC50
[7] = rat, serum, serum half-life (t1/2)

Row | SMILES | hGalR1 EC50 (hGalR1; [4]) | hGalR1 Emax (hGalR1) | EC50 (hGalR2; [5]) [nM] | hGalR2 Emax (hGalR2) | EC50 (hGalR3; [6]) [nM] | hGalR3 Emax (hGalR3) | fold enhancement of half-life ([1]; rat) [fold] | half-life at 100 μg/mL [1, 7] [h] | area-under-curve (AUC) of body weight gain curve ([2]; 18 day treatment) | time after which weight gain started to wane ([2]; 18 day treatment) [days] | food intake [2] | other results
1 | CSCC[C@@H]1NC(=O)[C@H](C)NC(=O)[C@H](CCC(N)=O)NC(=O)[C@@H]2CCCN2C(=O)[C@H]([C@@H](C)O)NC(=O)[C@H](Cc2c[nH]c3ccccc23)NC(=O)[C@@H](NC(C)=O)CSSC[C@@H](C(=O)N[C@@H](CCC(N)=O)C(N)=O)NC(=O)CNC(=O)[C@H](CCCCN)NC(=O)[C@H](CC(C)C)NC(=O)[C@H](Cc2ccc(O)cc2)NC(=O)[C@H](CC(C)C)NC1=O [LH101 (Ac)] (Ac-CWTPQAMLYLKGCQ-NH2; disulfide 1-13) | N.M. | N.M. | 380 | 0.97 | 390 | 1.00 | 29.1 | 32.9 | significant body weight control efficacy | 8 | inhibitory effects on food consumption | half-life at 100 μg/mL ([1]; rat, serum, half-life time in serum): > 24 h; body weight gain ([2]; 25 μg/kg i.p., 18 day treatment, vs PBS controls): significantly suppressed the body weight gain
2 | CSCC[C@@H]1NC(=O)[C@H](C)NC(=O)[C@H](CCC(N)=O)NC(=O)[C@@H]2CCCN2C(=O)[C@H]([C@@H](C)O)NC(=O)[C@H](Cc2c[nH]c3ccccc23)NC(=O)[C@@H](N)CSSC[C@@H](C(=O)N[C@@H](CCC(N)=O)C(N)=O)NC(=O)CNC(=O)[C@H](CCCCN)NC(=O)[C@H](CC(C)C)NC(=O)[C@H](Cc2ccc(O)cc2)NC(=O)[C@H](CC(C)C)NC1=O [LH101] (H-CWTPQAMLYLKGCQ-NH2; disulfide 1-13) | N.M. | N.M. | 1190 | 1.09 | 1560 | 1.04 | 5.3 | 5.93 |  |  |  | remaining at 8 h, 100 μg/mL ([1]; rat, serum): 46%; body weight gain [3]: significantly suppressed the body weight gain; also recorded: suppressed mice body weight gain; also recorded: does inhibit body weight gain
3 | CC(C)C[C@@H]1NC(=O)[C@H](CC(C)C)NC(=O)[C@H](Cc2ccc(O)cc2)NC(=O)CNC(=O)[C@H](C)NC(=O)[C@H](CO)NC(=O)[C@H](CC(N)=O)NC(=O)[C@H](CC(C)C)NC(=O)[C@H]([C@@H](C)O)NC(=O)[C@H](Cc2c[nH]c3ccccc23)NC(=O)[C@@H](N)CSSC[C@@H](C(=O)N[C@@H](Cc2c[nH]cn2)C(=O)N[C@@H](C)C(=O)N[C@H](C(N)=O)C(C)C)NC(=O)CNC1=O [LH201] (H-CWTLNSAGYLLGCHAV-NH2; disulfide 1-13) |  | 0.35 |  | 1.00 |  | 0.55 |  |  |  |  |  | EC50 (hGalR1; [4]): > 10000 nM; activity on GalR1, in words (hGalR1; full-dose SRE-Luc): lost all activity on GalR1; EC50 (hGalR2): 120 nM; activity on GalR2, in words (hGalR2; full-dose SRE-Luc): kept full activity on GalR2; EC50 (hGalR3): > 10000 nM; activity on GalR3, in words (hGalR3; full-dose SRE-Luc): only able to activate GalR3 at high doses; half-life at 100 μg/mL ([1]; rat serum in RPMI 1640, 37° C., 100 μg/mL, read-out: serum half-life (t1/2)): 2.82 h
4 | CSCC[C@H](NC(=O)[C@H](C)NC(=O)[C@H](CCC(N)=O)NC(=O)[C@@H]1CCCN1C(=O)[C@@H](NC(=O)[C@H](Cc1c[nH]c2ccccc12)NC(=O)[C@@H](N)CC(N)=O)[C@@H](C)O)C(=O)N[C@@H](CC(C)C)C(=O)N[C@@H](Cc1ccc(O)cc1)C(=O)N[C@@H](CC(C)C)C(=O)N[C@@H](CCCCN)C(=O)NCC(=O)N[C@@H](C)C(=O)N[C@@H](CCC(N)=O)C(N)=O [hSPX, reference compound] | N.M. | N.M. |  | 1.00 |  | 1.00 |  | 1.11 | significant body weight control efficacy | 10 | inhibitory effects on food consumption | 
